AC50 data for 8 compounds are collected here from ChEMBL document CHEMBL5291721, “A preclinical secondary pharmacology resource illuminates target-adverse drug reaction associations of marketed drugs” (Nat Commun, 2023).

One assay has as its target T1, Adenosine receptor A1 (Homo sapiens, UniProt P30542).
T1 sequence (P30542 whole entry): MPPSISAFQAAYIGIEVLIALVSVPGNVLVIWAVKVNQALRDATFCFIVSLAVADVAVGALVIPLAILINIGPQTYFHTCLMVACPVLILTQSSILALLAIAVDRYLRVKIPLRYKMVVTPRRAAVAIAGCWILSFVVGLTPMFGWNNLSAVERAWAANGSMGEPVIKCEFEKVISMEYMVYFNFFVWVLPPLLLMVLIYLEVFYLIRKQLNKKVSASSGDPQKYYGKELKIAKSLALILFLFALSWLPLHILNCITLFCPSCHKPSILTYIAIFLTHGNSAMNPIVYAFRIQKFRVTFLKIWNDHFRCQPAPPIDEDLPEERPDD

In assay [1] the target is Voltage-dependent L-type calcium channel subunit alpha-1C (Rattus norvegicus, UniProt P22002). Type of assay: functional.
Chain of Voltage-dependent L-type calcium channel subunit alpha-1C (P22002 whole entry): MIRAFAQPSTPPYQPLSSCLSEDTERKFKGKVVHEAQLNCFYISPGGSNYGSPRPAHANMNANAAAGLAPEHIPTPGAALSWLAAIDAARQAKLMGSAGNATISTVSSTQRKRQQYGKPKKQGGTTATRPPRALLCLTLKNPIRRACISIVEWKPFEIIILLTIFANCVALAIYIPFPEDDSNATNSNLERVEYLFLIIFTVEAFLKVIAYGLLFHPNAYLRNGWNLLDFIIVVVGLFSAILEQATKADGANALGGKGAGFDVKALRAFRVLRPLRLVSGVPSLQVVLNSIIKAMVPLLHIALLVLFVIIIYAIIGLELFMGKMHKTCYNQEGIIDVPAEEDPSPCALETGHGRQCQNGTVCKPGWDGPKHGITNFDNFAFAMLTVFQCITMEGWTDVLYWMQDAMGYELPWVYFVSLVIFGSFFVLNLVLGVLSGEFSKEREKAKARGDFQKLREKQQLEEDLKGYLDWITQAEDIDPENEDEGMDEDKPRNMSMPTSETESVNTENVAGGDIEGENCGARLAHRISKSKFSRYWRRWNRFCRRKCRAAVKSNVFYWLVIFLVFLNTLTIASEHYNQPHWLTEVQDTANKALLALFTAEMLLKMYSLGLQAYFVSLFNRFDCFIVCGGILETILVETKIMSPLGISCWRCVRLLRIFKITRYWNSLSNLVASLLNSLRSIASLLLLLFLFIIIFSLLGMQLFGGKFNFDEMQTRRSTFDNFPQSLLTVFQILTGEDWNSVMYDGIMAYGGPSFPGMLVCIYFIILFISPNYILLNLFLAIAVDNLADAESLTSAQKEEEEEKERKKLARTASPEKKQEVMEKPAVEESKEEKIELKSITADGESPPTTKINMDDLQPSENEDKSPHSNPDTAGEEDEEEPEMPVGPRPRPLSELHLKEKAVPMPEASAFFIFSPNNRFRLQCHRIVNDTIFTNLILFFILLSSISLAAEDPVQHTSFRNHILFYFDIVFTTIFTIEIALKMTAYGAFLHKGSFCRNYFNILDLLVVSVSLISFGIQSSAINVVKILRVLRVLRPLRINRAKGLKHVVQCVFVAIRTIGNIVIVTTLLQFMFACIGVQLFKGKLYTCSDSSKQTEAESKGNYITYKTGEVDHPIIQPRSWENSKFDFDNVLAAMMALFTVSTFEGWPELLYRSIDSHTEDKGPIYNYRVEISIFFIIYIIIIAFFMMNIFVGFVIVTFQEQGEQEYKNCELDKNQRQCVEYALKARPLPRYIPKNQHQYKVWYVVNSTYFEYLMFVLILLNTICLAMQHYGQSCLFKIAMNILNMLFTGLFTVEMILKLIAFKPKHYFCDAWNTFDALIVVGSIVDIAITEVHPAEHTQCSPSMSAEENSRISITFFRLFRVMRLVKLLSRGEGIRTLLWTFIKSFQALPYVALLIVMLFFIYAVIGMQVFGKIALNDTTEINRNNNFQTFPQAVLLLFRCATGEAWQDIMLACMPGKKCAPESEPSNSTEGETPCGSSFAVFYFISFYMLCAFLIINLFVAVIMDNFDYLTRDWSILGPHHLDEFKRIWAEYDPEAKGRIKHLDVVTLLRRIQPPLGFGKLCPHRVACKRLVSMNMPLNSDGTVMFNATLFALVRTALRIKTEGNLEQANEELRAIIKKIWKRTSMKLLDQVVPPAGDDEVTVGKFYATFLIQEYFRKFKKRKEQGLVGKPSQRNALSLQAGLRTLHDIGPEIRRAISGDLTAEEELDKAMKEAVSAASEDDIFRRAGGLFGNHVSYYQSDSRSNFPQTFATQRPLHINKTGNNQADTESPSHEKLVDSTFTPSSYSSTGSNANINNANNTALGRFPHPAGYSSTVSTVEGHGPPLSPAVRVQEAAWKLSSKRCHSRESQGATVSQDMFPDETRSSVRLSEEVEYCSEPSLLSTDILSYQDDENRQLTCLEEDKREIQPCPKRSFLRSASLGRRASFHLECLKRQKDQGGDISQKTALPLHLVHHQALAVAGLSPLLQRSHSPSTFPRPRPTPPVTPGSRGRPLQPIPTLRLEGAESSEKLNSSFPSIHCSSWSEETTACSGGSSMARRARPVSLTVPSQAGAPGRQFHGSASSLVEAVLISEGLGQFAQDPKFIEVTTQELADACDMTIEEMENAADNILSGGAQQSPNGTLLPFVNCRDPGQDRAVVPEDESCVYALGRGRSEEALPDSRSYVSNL
The target of a further assay is T2, Glucocorticoid receptor (Homo sapiens, UniProt P04150).
T2 sequence (P04150 whole entry): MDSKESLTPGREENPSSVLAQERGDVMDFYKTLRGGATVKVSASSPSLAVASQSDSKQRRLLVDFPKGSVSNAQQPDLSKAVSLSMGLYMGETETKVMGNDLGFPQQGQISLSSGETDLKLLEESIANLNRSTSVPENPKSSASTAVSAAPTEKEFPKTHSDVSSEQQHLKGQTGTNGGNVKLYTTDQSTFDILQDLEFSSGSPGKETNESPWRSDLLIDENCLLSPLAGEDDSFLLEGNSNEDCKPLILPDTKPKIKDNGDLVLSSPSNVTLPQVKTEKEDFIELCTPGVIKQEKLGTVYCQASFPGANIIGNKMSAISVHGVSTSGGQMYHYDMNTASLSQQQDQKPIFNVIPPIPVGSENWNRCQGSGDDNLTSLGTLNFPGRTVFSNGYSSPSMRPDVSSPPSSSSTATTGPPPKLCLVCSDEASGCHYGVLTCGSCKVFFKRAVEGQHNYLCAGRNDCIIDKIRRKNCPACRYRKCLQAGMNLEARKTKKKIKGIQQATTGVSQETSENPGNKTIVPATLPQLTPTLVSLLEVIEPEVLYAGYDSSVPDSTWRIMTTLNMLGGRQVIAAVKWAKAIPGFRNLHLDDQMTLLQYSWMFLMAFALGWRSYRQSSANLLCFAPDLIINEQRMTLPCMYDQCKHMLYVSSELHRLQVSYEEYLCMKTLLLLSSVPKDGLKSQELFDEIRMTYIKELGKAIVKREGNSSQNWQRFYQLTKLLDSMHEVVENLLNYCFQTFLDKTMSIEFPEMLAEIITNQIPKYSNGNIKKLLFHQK

Assay [2] concerns the target T3, Corticotropin-releasing factor receptor 2 (Homo sapiens, UniProt Q13324).
T3 sequence (Q13324 whole entry): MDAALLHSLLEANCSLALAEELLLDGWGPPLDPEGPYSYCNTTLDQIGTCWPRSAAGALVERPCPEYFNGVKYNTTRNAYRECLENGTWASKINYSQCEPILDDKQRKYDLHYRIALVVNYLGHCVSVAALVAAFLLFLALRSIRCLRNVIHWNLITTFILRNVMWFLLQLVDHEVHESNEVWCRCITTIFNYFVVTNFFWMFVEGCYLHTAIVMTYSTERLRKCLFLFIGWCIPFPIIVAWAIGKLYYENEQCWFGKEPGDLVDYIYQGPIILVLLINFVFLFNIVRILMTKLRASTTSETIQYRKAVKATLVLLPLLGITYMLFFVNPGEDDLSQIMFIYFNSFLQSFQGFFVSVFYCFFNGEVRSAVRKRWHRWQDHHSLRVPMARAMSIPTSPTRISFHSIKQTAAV

Assay [3] deals with T4, Gamma-aminobutyric acid receptor subunit alpha-1/alpha-2/beta-2/gamma-2 (Homo sapiens, UniProt P14867+P18507+P47869+P47870). Type of assay: protein-complex assay.
T4 sequence (P14867 whole entry): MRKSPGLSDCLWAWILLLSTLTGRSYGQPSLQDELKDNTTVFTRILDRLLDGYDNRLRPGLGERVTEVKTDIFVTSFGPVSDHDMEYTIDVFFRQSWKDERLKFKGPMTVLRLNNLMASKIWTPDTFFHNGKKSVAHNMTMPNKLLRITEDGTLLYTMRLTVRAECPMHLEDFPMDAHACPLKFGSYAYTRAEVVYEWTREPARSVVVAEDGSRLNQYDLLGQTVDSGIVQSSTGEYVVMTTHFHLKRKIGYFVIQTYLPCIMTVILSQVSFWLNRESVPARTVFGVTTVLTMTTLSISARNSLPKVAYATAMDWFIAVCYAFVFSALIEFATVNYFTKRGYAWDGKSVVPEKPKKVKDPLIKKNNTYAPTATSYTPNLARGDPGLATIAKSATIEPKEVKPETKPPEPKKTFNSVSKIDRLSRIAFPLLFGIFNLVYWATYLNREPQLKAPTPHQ
T4 sequence (P47870 whole entry): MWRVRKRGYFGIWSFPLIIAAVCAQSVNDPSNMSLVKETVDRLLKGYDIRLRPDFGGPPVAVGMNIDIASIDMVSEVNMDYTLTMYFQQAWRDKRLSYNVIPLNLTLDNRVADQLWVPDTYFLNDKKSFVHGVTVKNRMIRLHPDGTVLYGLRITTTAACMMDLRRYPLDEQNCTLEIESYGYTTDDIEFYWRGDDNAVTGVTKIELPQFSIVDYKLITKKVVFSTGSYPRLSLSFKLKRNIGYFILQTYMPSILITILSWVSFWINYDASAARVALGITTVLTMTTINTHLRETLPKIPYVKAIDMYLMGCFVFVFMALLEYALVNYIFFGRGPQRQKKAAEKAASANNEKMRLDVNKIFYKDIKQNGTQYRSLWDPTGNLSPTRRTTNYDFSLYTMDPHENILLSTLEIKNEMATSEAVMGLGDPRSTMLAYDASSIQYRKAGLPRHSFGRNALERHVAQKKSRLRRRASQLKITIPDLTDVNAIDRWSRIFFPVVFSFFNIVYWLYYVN
T4 sequence (P18507 whole entry): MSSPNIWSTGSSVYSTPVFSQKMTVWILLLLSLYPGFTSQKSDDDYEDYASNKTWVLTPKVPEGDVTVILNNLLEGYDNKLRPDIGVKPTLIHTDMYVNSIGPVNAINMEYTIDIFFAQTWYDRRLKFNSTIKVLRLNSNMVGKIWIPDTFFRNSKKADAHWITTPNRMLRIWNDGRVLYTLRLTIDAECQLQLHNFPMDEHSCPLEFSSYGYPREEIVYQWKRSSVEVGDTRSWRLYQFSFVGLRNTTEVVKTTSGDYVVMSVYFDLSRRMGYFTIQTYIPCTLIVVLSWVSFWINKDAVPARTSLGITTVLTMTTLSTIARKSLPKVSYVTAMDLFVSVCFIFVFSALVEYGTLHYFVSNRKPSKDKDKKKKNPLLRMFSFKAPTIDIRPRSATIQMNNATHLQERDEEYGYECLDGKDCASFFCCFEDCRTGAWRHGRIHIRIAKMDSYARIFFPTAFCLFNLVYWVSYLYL
T4 sequence (P47869 whole entry): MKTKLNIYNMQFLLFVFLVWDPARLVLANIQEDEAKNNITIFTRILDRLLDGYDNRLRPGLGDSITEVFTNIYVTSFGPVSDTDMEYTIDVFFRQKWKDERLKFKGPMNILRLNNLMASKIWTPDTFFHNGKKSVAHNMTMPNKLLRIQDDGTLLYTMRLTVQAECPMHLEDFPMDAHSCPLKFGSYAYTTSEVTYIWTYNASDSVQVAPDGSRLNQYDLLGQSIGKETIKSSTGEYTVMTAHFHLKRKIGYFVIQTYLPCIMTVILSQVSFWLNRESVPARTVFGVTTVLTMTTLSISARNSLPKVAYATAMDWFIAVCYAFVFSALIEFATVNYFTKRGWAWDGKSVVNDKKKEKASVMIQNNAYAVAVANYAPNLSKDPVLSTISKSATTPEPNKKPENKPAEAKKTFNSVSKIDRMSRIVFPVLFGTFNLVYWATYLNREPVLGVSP
In another assay the target is Glucagon receptor (Homo sapiens, UniProt P47871).
Chain of Glucagon receptor (P47871 whole entry): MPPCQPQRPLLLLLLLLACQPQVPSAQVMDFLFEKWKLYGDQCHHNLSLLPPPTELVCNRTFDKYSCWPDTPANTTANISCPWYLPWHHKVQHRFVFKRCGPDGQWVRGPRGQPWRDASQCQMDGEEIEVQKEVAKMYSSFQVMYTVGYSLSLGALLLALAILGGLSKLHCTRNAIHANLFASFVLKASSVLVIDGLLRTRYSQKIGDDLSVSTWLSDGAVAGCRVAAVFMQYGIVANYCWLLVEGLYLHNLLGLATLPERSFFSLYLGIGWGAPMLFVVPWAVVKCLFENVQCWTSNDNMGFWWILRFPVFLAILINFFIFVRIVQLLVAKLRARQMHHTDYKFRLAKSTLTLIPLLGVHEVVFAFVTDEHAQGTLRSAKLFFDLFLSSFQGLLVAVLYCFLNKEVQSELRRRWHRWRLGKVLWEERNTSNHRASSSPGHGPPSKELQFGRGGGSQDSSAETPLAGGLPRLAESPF
The target of the next assay is Histamine H2 receptor (Homo sapiens, UniProt P25021).
The target in assay [4] is T5, Muscarinic acetylcholine receptor M2 (Homo sapiens, UniProt P08172).
T5 sequence (P08172 whole entry): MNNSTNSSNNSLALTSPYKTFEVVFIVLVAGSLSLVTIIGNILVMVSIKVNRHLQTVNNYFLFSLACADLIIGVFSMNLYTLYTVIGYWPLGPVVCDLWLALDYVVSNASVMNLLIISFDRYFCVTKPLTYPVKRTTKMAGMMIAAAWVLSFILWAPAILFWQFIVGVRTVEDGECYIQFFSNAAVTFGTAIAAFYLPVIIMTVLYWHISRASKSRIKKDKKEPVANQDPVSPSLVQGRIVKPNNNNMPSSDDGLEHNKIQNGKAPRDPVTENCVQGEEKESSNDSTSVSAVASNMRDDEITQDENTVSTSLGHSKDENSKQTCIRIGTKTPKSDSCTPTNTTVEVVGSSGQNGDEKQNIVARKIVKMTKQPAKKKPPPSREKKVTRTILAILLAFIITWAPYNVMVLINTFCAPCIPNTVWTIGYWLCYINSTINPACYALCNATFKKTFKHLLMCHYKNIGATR

Assay [5] addresses T6, Alpha-2B adrenergic receptor (Homo sapiens, UniProt P18089).
T6 sequence (P18089 whole entry): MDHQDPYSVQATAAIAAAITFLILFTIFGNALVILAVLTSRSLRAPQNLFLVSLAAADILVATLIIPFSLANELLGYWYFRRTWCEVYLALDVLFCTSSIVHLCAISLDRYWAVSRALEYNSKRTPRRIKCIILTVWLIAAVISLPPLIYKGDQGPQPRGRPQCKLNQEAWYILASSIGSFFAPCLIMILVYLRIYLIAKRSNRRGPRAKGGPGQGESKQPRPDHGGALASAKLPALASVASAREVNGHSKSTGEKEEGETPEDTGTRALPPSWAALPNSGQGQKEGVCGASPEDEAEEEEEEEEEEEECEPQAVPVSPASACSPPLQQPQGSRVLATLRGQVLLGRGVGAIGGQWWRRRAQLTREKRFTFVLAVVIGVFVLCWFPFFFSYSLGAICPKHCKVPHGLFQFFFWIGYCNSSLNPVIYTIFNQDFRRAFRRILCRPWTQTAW

In assay [6] the target is T4, Gamma-aminobutyric acid receptor subunit alpha-1/alpha-2/beta-2/gamma-2. Type of assay: functional, cell-based.
Assay [7] concerns the target 5-hydroxytryptamine receptor 2A (Homo sapiens, UniProt P28223). The format is functional, cell-based.

The structures appear in SMILES notation. A value given as a limit tells only on which side of the number the result lay.
Also: assay procedure not described here.

Chain of 5-hydroxytryptamine receptor 2A (P28223 whole entry): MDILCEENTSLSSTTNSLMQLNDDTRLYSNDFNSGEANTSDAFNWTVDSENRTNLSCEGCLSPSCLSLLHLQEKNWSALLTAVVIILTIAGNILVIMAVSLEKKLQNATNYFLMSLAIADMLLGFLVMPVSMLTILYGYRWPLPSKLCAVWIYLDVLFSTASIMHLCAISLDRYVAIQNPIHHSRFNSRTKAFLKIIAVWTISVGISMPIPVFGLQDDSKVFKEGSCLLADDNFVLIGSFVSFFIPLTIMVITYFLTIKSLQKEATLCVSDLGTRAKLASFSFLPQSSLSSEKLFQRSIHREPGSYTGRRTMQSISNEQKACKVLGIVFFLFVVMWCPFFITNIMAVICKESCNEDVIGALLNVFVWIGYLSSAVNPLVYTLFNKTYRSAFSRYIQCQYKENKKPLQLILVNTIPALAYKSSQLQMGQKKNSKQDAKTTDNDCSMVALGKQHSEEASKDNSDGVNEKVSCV

On to `CC(C)C[C@H](NC(=O)[C@@H](O)[C@H](N)Cc1ccccc1)C(=O)O` [UBENIMEX], for which the AC50 on Adenosine receptor A1 is more than 30 µM; in assay [1] it was more than 30 µM; at Glucocorticoid receptor, 20 µM.

Take `O=C1Cc2cc(CCN3CCN(c4nsc5ccccc45)CC3)c(Cl)cc2N1` [ZIPRASIDONE]: the AC50 on Adenosine receptor A1 was more than 30 µM; in [1] it was more than 10 µM; in assay [2], more than 30 µM; in assay [3], more than 30 µM; on Glucagon receptor, more than 30 µM; at Histamine H2 receptor it was 0.596 µM. Further, the values for the concentration at half-maximal activity (AC50) (at Glucocorticoid receptor; in assay [4]) were more than 30 µM and more than 10 µM, respectively.

Consider `CC(C)NC(=N)NC(=N)Nc1ccc(Cl)c(Cl)c1` [CHLORPROGUANIL], for which the AC50 at Adenosine receptor A1 is more than 30 µM; in [5], 10 µM; in [6], more than 30 µM; in assay [7], 3.6 µM.

On to `CC(CN1c2ccccc2Sc2ccccc21)N(C)C` (stereo unspecified) [PROMETHAZINE], for which the AC50 on Adenosine receptor A1 is more than 30 µM; in assay [1], more than 10 µM; in [2], more than 30 µM; on Glucagon receptor it was more than 30 µM; at Histamine H2 receptor, 0.0536 µM; in assay [4] it was 0.161 µM.

In the case of `COc1cc(C(C)=O)ccc1OCCCN1CCC(c2noc3cc(F)ccc23)CC1` [ILOPERIDONE], the figures for the AC50 (on Adenosine receptor A1; in assay [5]; in assay [6]) were more than 30 µM, 0.105 µM and more than 30 µM, respectively.

Turning to `COc1ccccc1OC1(C)OC(=O)c2ccccc2O1` (stereo unspecified) [GUAIMESAL], the AC50 at Adenosine receptor A1 and at Glucocorticoid receptor was more than 30 µM each time.

As for `C[N+](C)(C)CCOP(=O)(O)OP(=O)([O-])OC[C@H]1O[C@@H](n2ccc(N)nc2=O)[C@H](O)[C@@H]1O` [CITICOLINE], the AC50 (on Adenosine receptor A1; in [5]; in assay [6]; in assay [7]) was more than 30 µM in each case.

Regarding `Nc1c(CC(=O)O)cccc1C(=O)c1ccc(Br)cc1` [BROMFENAC], the AC50 at Adenosine receptor A1 stood at 23.6 µM.

A word on the AC50: it is the concentration giving half of the maximal activity seen.
